Source: US12139520B2 (priority 2020, dated 2024)
Bridge positions count the residues as written; N and C are the ends. Square brackets hold non-standard residues; d marks the D form. Peptide text beside a SMILES is read from it. Hyp = O=C(O)[C@@H]1C[C@@H](O)CN1

Assays:
[1] = Physical stability of peptide analogues (Thioflavin T fibrillation); type: physicochemical; settings: maximum ThT signal normalized between hAMY maximum and buffer background; 40° C., shaking, four days; pH 7 per table title
Summary of the method: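 Samples are stressed at 40 °C for four days, being shaken at 700 rpm before each 10-min fluorescence reading of 4 μM Thioflavin T. Buffers were pH 4 acetate or pH 7 phosphate. Reported values are smoothed maximum ThT signals as a percentage of the hAMY-to-background range.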

[2] = molecular target: T1, hAMY3 receptor (Homo sapiens, UniProt O60896+P30988); assay: cAMP assay for in vitro receptor activation, hAMY3-R; type: cell-based; settings: cAMP assay, hAMY3 receptor; read-out: hAMY3R EC50
T1 sequence (P30988 25-474): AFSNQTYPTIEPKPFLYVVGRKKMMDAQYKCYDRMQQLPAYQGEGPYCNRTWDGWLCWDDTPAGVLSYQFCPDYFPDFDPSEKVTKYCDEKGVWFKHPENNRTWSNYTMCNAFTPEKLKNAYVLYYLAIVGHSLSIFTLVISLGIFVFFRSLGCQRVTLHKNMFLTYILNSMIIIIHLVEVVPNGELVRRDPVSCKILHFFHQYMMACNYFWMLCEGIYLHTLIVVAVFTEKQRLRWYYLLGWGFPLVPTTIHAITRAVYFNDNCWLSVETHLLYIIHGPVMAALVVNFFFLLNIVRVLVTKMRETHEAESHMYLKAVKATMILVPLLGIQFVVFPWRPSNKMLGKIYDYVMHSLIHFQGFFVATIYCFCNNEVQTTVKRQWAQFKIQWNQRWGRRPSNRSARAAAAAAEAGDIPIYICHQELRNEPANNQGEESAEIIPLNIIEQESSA
T1 sequence (O60896 24-148 partner): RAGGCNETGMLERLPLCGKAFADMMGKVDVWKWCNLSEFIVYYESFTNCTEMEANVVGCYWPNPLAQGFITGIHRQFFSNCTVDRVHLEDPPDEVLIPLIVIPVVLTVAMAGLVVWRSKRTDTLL
Summary of the method: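 Thawed cells from a sub-cloned monoclonal hAMY3-overexpressing line are plated in DPBS containing 0.05% casein and 0.5 mM IBMX. Test compounds are added immediately at graded doses for 30 min at room temperature. Reagents for cAMP detection are then added, and TR-FRET is recorded after one hour.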

| Max ThT signal (%) [1] [%] | EC50 [2] [nM] | SMILES |
| --- | --- | --- |
| 9.300 | 0.02 | CC[C@H](C)[C@H](NC(=O)[C@H](CCC(N)=O)NC(=O)[C@H](Cc1c[nH]cn1)NC(=O)[C@H](C)NC(=O)[C@H](CC(C)C)NC(=O)[C@H](CCCNC(=N)N)NC(=O)[C@H](CCC(N)=O)NC(=O)[C@@H](NC(=O)[C@@H](NC(=O)[C@@H]1CSSC[C@H](NC(=O)CN)C(=O)N[C@@H](CCCNC(=N)N)C(=O)N[C@@H]([C@@H](C)O)C(=O)NCC(=O)N[C@@H]([C@@H](C)O)C(=O)N1)[C@@H](C)O)C(C)C)C(=O)N[C@@H](Cc1ccc(O)cc1)C(=O)N[C@@H](CCC(N)=O)C(=O)N[C@@H](Cc1ccccc1)C(=O)N[C@H](C(=O)N[C@@H](CC(=O)O)C(=O)N[C@@H](CCCCN)C(=O)N[C@@H](CC(=O)O)C(=O)N[C@@H](CCCCN)C(=O)N[C@@H](CC(=O)O)C(=O)N[C@@H](CC(N)=O)C(=O)N[C@H](C(=O)N[C@@H](C)C(=O)N1CCC[C@H]1C(=O)N[C@@H](CCCNC(=N)N)C(=O)N[C@H](C(=O)N[C@@H](CC(N)=O)C(=O)N[C@H](C(=O)NCC(=O)N1CCC[C@H]1C(=O)N[C@@H](CCC(N)=O)C(=O)NCC(=O)N[C@@H](Cc1ccc(O)cc1)C(N)=O)C(C)C)[C@@H](C)O)C(C)C)[C@@H](C)O [compound 109] (H-GCRTGTCTVQRLAHQIYQFTDKDKDNVAPRTNVGPQGY-NH2; disulfide 2-7; N-terminus assumed) |
| 3.000 | 0.011 | CC[C@H](C)[C@H](NC(=O)[C@H](CCC(N)=O)NC(=O)[C@H](Cc1c[nH]cn1)NC(=O)[C@H](C)NC(=O)[C@H](CC(C)C)NC(=O)[C@H](CCCNC(=N)N)NC(=O)[C@H](CCC(N)=O)NC(=O)[C@@H](NC(=O)[C@@H](NC(=O)[C@@H]1CSSC[C@H](NC(=O)CN)C(=O)N[C@@H](CCCNC(=N)N)C(=O)N[C@@H](Cc2ccccc2)C(=O)NCC(=O)N[C@@H]([C@@H](C)O)C(=O)N1)[C@@H](C)O)C(C)C)C(=O)N[C@@H](Cc1ccc(O)cc1)C(=O)N[C@@H](CCC(N)=O)C(=O)N[C@@H](Cc1ccccc1)C(=O)N[C@H](C(=O)N[C@@H](CC(=O)O)C(=O)N[C@@H](CCCCN)C(=O)N[C@@H](CC(=O)O)C(=O)N[C@@H](CCCCN)C(=O)N[C@@H](CC(=O)O)C(=O)N[C@@H](CC(N)=O)C(=O)N[C@H](C(=O)N[C@@H](C)C(=O)N1CCC[C@H]1C(=O)N[C@@H](CCCNC(=N)N)C(=O)N[C@H](C(=O)N[C@@H](CCCCN)C(=O)N[C@H](C(=O)NCC(=O)N1CCC[C@H]1C(=O)N[C@@H](CCC(N)=O)C(=O)NCC(=O)N1C[C@H](O)C[C@H]1C(N)=O)C(C)C)[C@@H](C)O)C(C)C)[C@@H](C)O [compound 45] (H-GCRFGTCTVQRLAHQIYQFTDKDKDNVAPRTKVGPQG[Hyp]-NH2; disulfide 2-7; N-terminus assumed) |
| 0.600 |  | CC[C@H](C)[C@H](NC(=O)[C@H](CCC(N)=O)NC(=O)[C@H](Cc1c[nH]cn1)NC(=O)[C@H](C)NC(=O)[C@H](CC(C)C)NC(=O)[C@H](CCCNC(=N)N)NC(=O)[C@H](CCC(N)=O)NC(=O)[C@@H](NC(=O)[C@@H](NC(=O)[C@@H]1CSSC[C@H](NC(=O)CN)C(=O)N[C@@H](CCCNC(=N)N)C(=O)N[C@@H]([C@@H](C)O)C(=O)NCC(=O)N[C@@H]([C@@H](C)O)C(=O)N1)[C@@H](C)O)C(C)C)C(=O)N[C@@H](Cc1ccc(O)cc1)C(=O)N[C@@H](CCC(N)=O)C(=O)N[C@@H](Cc1ccccc1)C(=O)N[C@H](C(=O)N[C@@H](CC(=O)O)C(=O)N[C@@H](CCCCN)C(=O)N[C@@H](Cc1ccccc1)C(=O)N[C@@H](CCCCN)C(=O)N[C@@H](CC(=O)O)C(=O)N[C@@H](CC(N)=O)C(=O)N[C@H](C(=O)N[C@@H](C)C(=O)N1CCC[C@H]1C(=O)N[C@@H](CCCNC(=N)N)C(=O)N[C@@H](CO)C(=O)N[C@@H](CCCCN)C(=O)N[C@H](C(=O)N[C@@H](CO)C(=O)N1CCC[C@H]1C(=O)N[C@@H](CCC(N)=O)C(=O)N[C@@H](CCSC)C(=O)N1C[C@H](O)C[C@H]1C(N)=O)[C@@H](C)CC)C(C)C)[C@@H](C)O [compound 236] (H-GCRTGTCTVQRLAHQIYQFTDKFKDNVAPRSKISPQM[Hyp]-NH2; disulfide 2-7; N-terminus assumed) |
| 9.300 |  | CC[C@H](C)[C@H](NC(=O)[C@H](CCC(N)=O)NC(=O)[C@H](Cc1c[nH]cn1)NC(=O)[C@H](C)NC(=O)[C@H](CC(C)C)NC(=O)[C@H](CCCNC(=N)N)NC(=O)[C@H](CCC(N)=O)NC(=O)[C@@H](NC(=O)[C@@H](NC(=O)[C@@H]1CSSC[C@H](NC(=O)[C@@H](N)CCCCN)C(=O)N[C@@H](CC(N)=O)C(=O)N[C@@H]([C@@H](C)O)C(=O)N[C@@H](C)C(=O)N[C@@H]([C@@H](C)O)C(=O)N1)[C@@H](C)O)C(C)C)C(=O)N[C@@H](Cc1ccc(O)cc1)C(=O)N[C@@H](CCC(N)=O)C(=O)N[C@@H](Cc1ccccc1)C(=O)N[C@H](C(=O)N[C@@H](CCCCN)C(=O)N[C@@H](CC(=O)O)C(=O)N[C@@H](CCCCN)C(=O)N[C@@H](CC(=O)O)C(=O)N[C@@H](CC(N)=O)C(=O)N[C@H](C(=O)N[C@@H](C)C(=O)N1CCC[C@H]1C(=O)N1CCC[C@H]1C(=O)N[C@H](C(=O)N[C@@H](CC(N)=O)C(=O)N[C@H](C(=O)NCC(=O)N[C@@H](CO)C(=O)N[C@@H](CC(N)=O)C(=O)NCC(=O)N1C[C@H](O)C[C@H]1C(N)=O)C(C)C)[C@@H](C)O)C(C)C)[C@@H](C)O [compound 29] (H-KCNTATCTVQRLAHQIYQFTKDKDNVAPPTNVGSNG[Hyp]-NH2; disulfide 2-7; N-terminus assumed) |
| 6.000 |  | CC[C@H](C)[C@H](NC(=O)[C@H](CCC(N)=O)NC(=O)[C@H](Cc1c[nH]cn1)NC(=O)[C@H](C)NC(=O)[C@H](CC(C)C)NC(=O)[C@H](CCCNC(=N)N)NC(=O)[C@H](CCC(N)=O)NC(=O)[C@@H](NC(=O)[C@@H](NC(=O)[C@@H]1CSSC[C@H](NC(=O)CN)C(=O)N[C@@H](CCCNC(=N)N)C(=O)N[C@@H]([C@@H](C)O)C(=O)NCC(=O)N[C@@H]([C@@H](C)O)C(=O)N1)[C@@H](C)O)C(C)C)C(=O)N[C@@H](Cc1ccc(O)cc1)C(=O)N[C@@H](CCC(N)=O)C(=O)N[C@@H](Cc1ccccc1)C(=O)N[C@H](C(=O)N[C@@H](CC(=O)O)C(=O)N[C@@H](CCCCN)C(=O)N[C@@H](CC(=O)O)C(=O)N[C@@H](CCCCN)C(=O)N[C@@H](CC(=O)O)C(=O)N[C@@H](CC(N)=O)C(=O)N[C@H](C(=O)N[C@@H](C)C(=O)N1CCC[C@H]1C(=O)N[C@@H](CCCNC(=N)N)C(=O)N[C@H](C(=O)N[C@@H](CCCCN)C(=O)N[C@H](C(=O)N[C@@H](CO)C(=O)N1CCC[C@H]1C(=O)N[C@@H](CCC(N)=O)C(=O)NCC(=O)N1C[C@H](O)C[C@H]1C(N)=O)[C@@H](C)CC)[C@@H](C)O)C(C)C)[C@@H](C)O [compound 189] (H-GCRTGTCTVQRLAHQIYQFTDKDKDNVAPRTKISPQG[Hyp]-NH2; disulfide 2-7; N-terminus assumed) |
| 5.600 |  | CC[C@H](C)[C@H](NC(=O)[C@H](CCC(N)=O)NC(=O)[C@H](Cc1c[nH]cn1)NC(=O)[C@H](C)NC(=O)[C@H](CC(C)C)NC(=O)[C@H](CCCNC(=N)N)NC(=O)[C@H](CCC(N)=O)NC(=O)[C@@H](NC(=O)[C@@H](NC(=O)[C@@H]1CSSC[C@H](NC(=O)CN)C(=O)N[C@@H](CCCNC(=N)N)C(=O)N[C@@H]([C@@H](C)O)C(=O)NCC(=O)N[C@@H]([C@@H](C)O)C(=O)N1)[C@@H](C)O)C(C)C)C(=O)N[C@@H](Cc1ccc(O)cc1)C(=O)N[C@@H](CCC(N)=O)C(=O)N[C@@H](Cc1ccccc1)C(=O)N[C@H](C(=O)N[C@@H](CC(=O)O)C(=O)N[C@@H](CCCCN)C(=O)N[C@@H](CC(=O)O)C(=O)N[C@@H](CCCCN)C(=O)N[C@@H](CC(=O)O)C(=O)N[C@@H](CC(N)=O)C(=O)N[C@H](C(=O)N[C@@H](C)C(=O)N1CCC[C@H]1C(=O)N[C@@H](CCCNC(=N)N)C(=O)N[C@H](C(=O)N[C@@H](CCCCN)C(=O)N[C@H](C(=O)N[C@@H](CO)C(=O)N1CCC[C@H]1C(=O)N[C@@H](CC(N)=O)C(=O)NCC(=O)N1C[C@H](O)C[C@H]1C(N)=O)[C@@H](C)CC)[C@@H](C)O)C(C)C)[C@@H](C)O [compound 197] (H-GCRTGTCTVQRLAHQIYQFTDKDKDNVAPRTKISPNG[Hyp]-NH2; disulfide 2-7; N-terminus assumed) |
